Measurements as given in US20150316565A1, “Methodologies and Reagents for Detecting Fibrinolysis and Hyperfibrinolysis” (Haemonetics Corporation, priority 2014, published 2015).

Key:
[1] = tested on: fibrinolysis in a blood sample with reduced platelet function; assay: Functional Fibrinogen (FF) TEG assay with and without tranexamic acid (TXA)
[2] = tested on: fibrinolysis in citrated whole blood; assay: Citrated Kaolin (CK) TEG assay, blood spiked with increasing t-PA, LY30; design: species or system human; conditions: 15 healthy donors, eight t-PA concentrations, FIG. 9
Method: For the Citrated Kaolin group, citrated blood from each of the donors (e.g., whole blood collected into a tube containing sodium citrate (thereby creating a ratio blood to citrate of approximately 9:1) is collected. For eight different tPA concentrations, 0.5 ml of the blood was gently mixed with Kaolin (a coagulation activator) and increasing concentrations of t-PA to induce fibrinolysis. Aliquots were transferred to 37° C. TEG cups, and the samples were analyzed using the TEG 5000 device, and the LY30 calculated for each of the 15 donors at each of the tPA concentrations. The results plotting the LY30 against the t-PA concentration are shown in FIG. 9.

[3] = tested on: fibrinolysis in citrated blood with FF reagent (GPIIb/IIIa receptor antagonist); assay: Functional Fibrinogen TEG assay with/without TXA, blood spiked with increasing t-PA, ΔLY30; design: species or system human; conditions: 15 healthy donors, eight t-PA concentrations, FIG. 10
Method: The two TEG cups for each of the fifteen donors at the eight different t-PA concentrations were analyzed on a TEG 5000 device.

Compound | LY30 ([1]; TXA-treated sample of FIG. 6, amplitude at 74 minutes, the sample not treated with TXA had LY30 approximately 50%) | TEG tracing of the TXA-treated portion compared with the portion not treated with TXA ([1]; blood from a patient with fibrinolysis or hyperfibrinolysis, FIGS. 5 and 6, divergence from about 2 minutes) | Detection threshold [tPA] for CK-LY30 [2] [ng/mL] | Detection threshold [tPA] for ΔLY30 [3] [ng/mL]
NC[C@H]1CC[C@H](C(=O)O)CC1 [TXA, tranexamic acid] | approximately 0.1% | higher amplitude, faster growing TEG tracing | – | –
tPA: tissue plasminogen activator, converts inactive plasminogen to active plasmin; spiked into blood to induce fibrinolysis | – | – | 75 to 100 | 25 to 50
